# Experimental data published in PubChem BioAssay (NCI).
#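 How tested: cells in 96-well plates exposed to compound for 48 hours at five concentrations. TGI: total growth inhibition.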
# Experiments:
# Assay in all cases: NCI-60 cell line screen, 48 h
# [1] = system: UO-31 renal
# [2] = system: SF-268 CNS
# [3] = system: A549 NSCLC
# [4] = system: T-47D breast
# [5] = system: MDA-N
# [6] = system: HCC-2998 colon
# [7] = system: RXF 393 renal
# [8] = system: LOX IMVI melanoma
# [9] = system: UACC-62 melanoma
# [10] = system: NCI-H226 lung
# [11] = system: EKVX NSCLC
# [12] = system: SNB-19 CNS
# [13] = system: A498 renal
# [14] = system: HCT-15 colon
# [15] = system: MCF7 breast
# [16] = system: NCI-H23 lung
# [17] = system: OVCAR-8 ovarian
# [18] = system: HL-60(TB) leukemia
# [19] = system: NCI-H460 lung
# [20] = system: M14 melanoma
# [21] = system: SN12C renal
# [22] = system: MOLT-4 leukemia
# [23] = system: SW-620 colon
# [24] = system: OVCAR-4 ovarian
# [25] = system: HOP-92 NSCLC
# [26] = system: SF-295 CNS
# [27] = system: SK-MEL-28 melanoma
# [28] = system: PC-3 prostate
# [29] = system: OVCAR-5 ovarian
# [30] = system: NCI-H522 lung
# [31] = system: TK-10 renal
# [32] = system: CCRF-CEM leukemia
# [33] = system: OVCAR-3 ovarian
# [34] = system: MDA-MB-435
# [35] = system: HT29 colon
# [36] = system: U251 CNS
# [37] = system: RPMI-8226 leukemia
# [38] = system: SK-OV-3 ovarian
# [39] = system: SNB-75 CNS
# [40] = system: SF-539 CNS
# [41] = system: ACHN renal
# [42] = system: SK-MEL-5 melanoma
# [43] = system: HCT-116 colon
# [44] = system: DU-145 prostate
# [45] = system: MALME-3M melanoma
# [46] = system: SR leukemia
# [47] = system: KM12 colon
# [48] = system: MDA-MB-231 breast
# [49] = system: NCI/ADR-RES ovarian
# [50] = system: HOP-62 NSCLC
# [51] = system: BT-549 breast
# [52] = system: CAKI-1 renal
# [53] = system: COLO 205 colon
# [54] = system: UACC-257 melanoma
# [55] = system: K-562 leukemia
# [56] = system: HS 578T breast
# [57] = system: IGROV1 ovarian
# [58] = system: SK-MEL-2 melanoma
smiles,measurement,setting,value
CC(=O)OCC1OC(n2c(-c3ccc(C)cc3)cc(-c3ccco3)c(C#N)c2=S)C(OC(C)=O)C(OC(C)=O)C1OC(C)=O (stereo not drawn),TGI,[1],> 100 µM
same,TGI,[2],> 100 µM
same,TGI,[3],> 100 µM
same,TGI,[4],> 100 µM
same,TGI,[5],> 100 µM
same,TGI,[6],> 100 µM
same,TGI,[7],> 100 µM
same,TGI,[8],> 100 µM
same,TGI,[9],45.2 µM
same,TGI,[10],> 100 µM
same,TGI,[11],> 100 µM
same,TGI,[12],> 100 µM
same,TGI,[13],> 100 µM
same,TGI,[14],> 100 µM
same,TGI,[15],> 100 µM
same,TGI,[16],> 100 µM
same,TGI,[17],> 100 µM
same,TGI,[18],> 100 µM
same,TGI,[19],> 100 µM
same,TGI,[20],> 100 µM
same,TGI,[21],> 100 µM
same,TGI,[22],> 100 µM
same,TGI,[23],> 100 µM
same,TGI,[24],> 100 µM
same,TGI,[25],81.1 µM
same,TGI,[26],> 100 µM
same,TGI,[27],> 100 µM
same,TGI,[28],> 100 µM
same,TGI,[29],> 100 µM
same,TGI,[30],> 100 µM
same,TGI,[31],> 100 µM
same,TGI,[32],> 100 µM
same,TGI,[33],> 100 µM
same,TGI,[34],> 100 µM
same,TGI,[35],> 100 µM
same,TGI,[36],> 100 µM
same,TGI,[37],> 100 µM
same,TGI,[38],> 100 µM
same,TGI,[39],> 100 µM
same,TGI,[40],36.1 µM
same,TGI,[41],> 100 µM
same,TGI,[42],> 100 µM
same,TGI,[43],> 100 µM
same,TGI,[44],> 100 µM
same,TGI,[45],> 100 µM
same,TGI,[46],> 100 µM
same,TGI,[47],> 100 µM
same,TGI,[48],78.4 µM
same,TGI,[49],> 100 µM
same,TGI,[50],> 100 µM
same,TGI,[51],> 100 µM
same,TGI,[52],> 100 µM
same,TGI,[53],> 100 µM
same,TGI,[54],> 100 µM
same,TGI,[55],> 100 µM
same,TGI,[56],> 100 µM
same,TGI,[57],> 100 µM
same,TGI,[58],> 100 µM
